Source: patent publication US11046660B2, “Compounds and their use as PDE4 activators” (MIRONID LIMITED, priority 2016, dated 2021)

Legend:
Type in all cases: biochemical
full-length human PDE4D5 = biological target: T1, full-length human PDE4D5 (Homo sapiens, UniProt Q08499); assay: PDE4D5 long form enzyme activation radio-assay (Experiment 1, Protocol A or B); conditions: for activation at 30 µM: mean % increase in counts over basal activity
T1 construct: stably expressed the full-length human PDE4D5, PDE4A4 and PDE4B1 long isoforms; made in house; cytosol fraction of cell lysate
T1 sequence (Q08499 1-745 isoform Q08499-6): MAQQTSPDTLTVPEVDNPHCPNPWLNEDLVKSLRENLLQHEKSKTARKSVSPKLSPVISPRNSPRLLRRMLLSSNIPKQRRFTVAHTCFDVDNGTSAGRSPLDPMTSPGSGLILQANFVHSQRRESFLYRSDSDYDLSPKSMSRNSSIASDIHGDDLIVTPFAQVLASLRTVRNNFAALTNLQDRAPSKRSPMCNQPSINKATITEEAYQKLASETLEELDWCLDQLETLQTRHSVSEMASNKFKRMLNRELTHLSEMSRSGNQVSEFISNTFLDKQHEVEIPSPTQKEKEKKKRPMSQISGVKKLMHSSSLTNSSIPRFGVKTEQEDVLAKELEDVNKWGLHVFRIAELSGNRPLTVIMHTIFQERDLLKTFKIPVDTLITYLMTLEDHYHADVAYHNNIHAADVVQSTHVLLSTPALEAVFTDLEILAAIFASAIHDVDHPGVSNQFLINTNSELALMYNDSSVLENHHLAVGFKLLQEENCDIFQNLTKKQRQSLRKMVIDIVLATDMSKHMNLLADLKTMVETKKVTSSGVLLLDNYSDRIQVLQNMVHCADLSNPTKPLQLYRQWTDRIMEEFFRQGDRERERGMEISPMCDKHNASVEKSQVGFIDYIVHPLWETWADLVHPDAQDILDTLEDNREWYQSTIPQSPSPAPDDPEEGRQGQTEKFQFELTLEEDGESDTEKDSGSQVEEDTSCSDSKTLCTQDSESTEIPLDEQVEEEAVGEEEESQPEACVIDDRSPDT
Description: (§1) Experiment 1: Identification of PDE4 Long Form Activators of the Present Invention Using Full-Length Human PDE4 Isoforms PDE4D5, PDE4A4, PDE4B1 and PDE4B2
(§2) HEK 293 cells were transfected with pDEST™ PDE4 expression vectors using Lipofectamine LTX/Plus reagent (Invitrogen) as outlined by the manufacturer and clonal isolates expanded to obtain cell lines that stably expressed the full-length human PDE4D5, PDE4A4 and PDE4B1 long isoforms and the full length human PDE4B2 short isoform. These were called the HEK-PDE4D5, HEK-PDE4A4, HEK-PDE4B1 and HEK-PDE4B2 cell lines, respectively.
(§3) HEK-PDE4D5 cells were seeded out in 100 mm plates and incubated at 37° C. in an atmosphere of 5% CO2, 95% air. Cell lysates were prepared using KHEM buffer [50 mM KCl, 10 mM EGTA, 50 mM HEPES (pH 7.2), 1.92 mM MgCl2].
(§4) To prepare the cell lysates, the 100 mm plates containing the cells were placed on ice and washed with ice-cold PBS (phosphate buffered saline, pH 7.4). KHEM buffer (500 μl) was added to the cells. Cells were then scraped off the plate and triturated using a needle (BD Microlance™ 0.8, 40 mm). The lysed cells were then centrifuged at 2000 rpm for 10 minutes to remove cell debris and the supernatant (cell lysate containing recombinant PDE4D5) was transferred to a fresh tube and kept on ice.
(§5) The cell lysate containing recombinant PDE4D5 was transferred into a centrifuge tube and placed into an ultracentrifuge (BECKMAN COULTER) and spun at high speed (100,000 g) for 30 minutes at 4° C. The cytosol fraction was then collected and its protein amount determined using a BCA protein assay.
(§6) PDE assays were performed using a final concentration of 10 mM Tris/5 mM MgCl2 and 1 μM [^3H]-cAMP (Perkin Elmer) plus PDE4D5 cell lysate cytosol fraction, containing over-expressed PDE4D5, with and without test compound. Incubations were performed at 30° C. for 5 minutes. The samples were then placed in a boiling water bath for 2 minutes to denature the PDE enzyme, and returned to ice. Samples were allowed to cool for 10 min after which snake venom 5′-nucleotidase (25 μl, 1 mg/ml; Sigma) was added. The tubes were vortexed and incubated in a water bath at 30° C. for 10 minutes, to attain conversion of [^3H]-5′-AMP to [^3H]-adenosine, and then placed on ice. Dowex ion exchange resin (Sigma) prepared as a 1:1 Dowex: water stock was thoroughly re-suspended and diluted 2:1 with ethanol. The resulting Dowex suspension (0.4 ml) was added to each tube. Tubes were vortexed to mix and then incubated on ice for at least 15 minutes before a final vortex. The Dowex resin was pelleted by centrifugation at 13,000 g at 4° C. for 3 minutes and 150 μl of the supernatant was removed to an Eppendorf tube containing 1 ml of ScintiSafe3 scintillation fluid (Fisher). Tubes were vortexed thoroughly to mix and the recovered [^3H]-adenosine was quantified by measuring counts over 1 minute in a scintillation counter.
(§7) The % increase in counts in the presence of test compound at a particular concentration indicates the % increase in enzyme activity at that concentration.
(§8) PDE assays were performed in thin walled V-bottomed 96-well plates. The assays were performed at a final concentration of 10 mM Tris/5 mM MgCl2 plus PDE4D5 cell lysate cytosol fraction, containing over-expressed PDE4D5, with and without test compound. The lysate/compound mix were incubated together for 15 min at room temperature on an orbital shaker prior to addition of [^3H] cAMP (final concentration 1 μM [^3H] cAMP; Perkin Elmer) to a final volume of 50 μl per reaction. The reactions were then incubated for 10 minutes at 30° C., terminated by heating for 2 min at 95° C. and allowed to cool. Snake venom (12.5 μl of 1 mg/ml; Crotalus atrox, Sigma) was then added and the plates were agitated and incubated for a further 15 minutes at 30° C. […]

full-length human PDE4B2 = biological target: T2, full-length human PDE4B2 (Homo sapiens, UniProt Q07343); assay: PDE4B2 short form enzyme activation radio-assay (Experiment 1, Protocol A or B); conditions: for activation at 30 µM: mean % increase in counts over basal activity
T2 construct: and the full length human PDE4B2 short isoform; made in house; cytosol fraction of cell lysate
T2 sequence (Q07343 1-564 isoform Q07343-2): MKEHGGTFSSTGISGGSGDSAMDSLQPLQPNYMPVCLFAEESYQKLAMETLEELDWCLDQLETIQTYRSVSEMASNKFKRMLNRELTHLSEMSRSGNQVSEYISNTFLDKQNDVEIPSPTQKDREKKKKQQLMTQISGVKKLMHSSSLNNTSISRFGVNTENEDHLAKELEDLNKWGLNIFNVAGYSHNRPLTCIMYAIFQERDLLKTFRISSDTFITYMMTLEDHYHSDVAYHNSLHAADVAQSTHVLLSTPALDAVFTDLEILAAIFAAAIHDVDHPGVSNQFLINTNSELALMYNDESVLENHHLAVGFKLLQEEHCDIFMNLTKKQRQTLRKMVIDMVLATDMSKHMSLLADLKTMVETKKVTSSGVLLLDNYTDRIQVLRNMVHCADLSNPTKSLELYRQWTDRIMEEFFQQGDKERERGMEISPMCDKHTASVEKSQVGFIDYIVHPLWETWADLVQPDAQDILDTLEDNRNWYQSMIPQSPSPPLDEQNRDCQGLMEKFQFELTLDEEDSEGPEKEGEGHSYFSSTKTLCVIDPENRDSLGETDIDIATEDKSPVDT
Description: as §1, §2, §3, §4, §5, §6, §7, §8

full-length human PDE4B1 = biological target: T3, full-length human PDE4B1 (Homo sapiens, UniProt Q07343); assay: PDE4B1 long form enzyme activation radio-assay (Experiment 1, Protocol A or B); conditions: mean % increase in counts over basal activity
T3 construct: stably expressed the full-length human PDE4D5, PDE4A4 and PDE4B1 long isoforms; made in house; cytosol fraction of cell lysate
T3 sequence (Q07343 whole entry, canonical isoform): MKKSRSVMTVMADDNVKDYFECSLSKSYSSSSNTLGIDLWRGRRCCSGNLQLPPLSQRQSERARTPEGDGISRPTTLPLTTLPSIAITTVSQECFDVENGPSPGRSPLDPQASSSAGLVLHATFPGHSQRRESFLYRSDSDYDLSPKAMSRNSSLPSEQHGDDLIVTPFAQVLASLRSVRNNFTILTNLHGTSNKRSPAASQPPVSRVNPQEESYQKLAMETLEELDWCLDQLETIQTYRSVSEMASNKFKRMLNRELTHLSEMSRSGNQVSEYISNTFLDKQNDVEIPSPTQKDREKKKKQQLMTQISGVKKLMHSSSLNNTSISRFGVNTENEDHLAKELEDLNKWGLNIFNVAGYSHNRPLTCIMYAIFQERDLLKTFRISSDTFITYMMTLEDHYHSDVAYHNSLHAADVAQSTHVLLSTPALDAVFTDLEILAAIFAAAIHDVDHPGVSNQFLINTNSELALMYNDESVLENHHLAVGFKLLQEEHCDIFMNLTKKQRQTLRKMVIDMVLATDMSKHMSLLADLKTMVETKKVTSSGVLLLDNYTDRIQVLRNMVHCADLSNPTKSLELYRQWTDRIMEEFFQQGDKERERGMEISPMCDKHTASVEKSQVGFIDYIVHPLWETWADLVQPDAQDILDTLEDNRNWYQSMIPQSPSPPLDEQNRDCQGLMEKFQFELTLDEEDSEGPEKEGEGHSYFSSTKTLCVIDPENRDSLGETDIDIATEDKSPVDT
Description: as §1, §2, §3, §4, §5, §6, §7, §8

**Q.** What does the source list for `CCOC(=O)c1nc(-c2ccc(Cl)c(F)c2)nn1CC(=O)NCc1ccccc1` [Example 2, Ethyl 1-[(benzylcarbamoyl)methyl]-3-(4-chloro-3-fluorophenyl)-1H-1,2,4-triazole-5-carboxylate]?
**A.** activation at 30 µM (full-length human PDE4D5; Protocol A): 92.9%; activation of PDE4 long form PDE4D5 (in words) (full-length human PDE4D5; Protocol A, FIG. 1(a)): dose dependent activation; activation at 30 µM (full-length human PDE4B2; Protocol A): -2.5%; activation of PDE4 short form PDE4B2 (in words) (full-length human PDE4B2; Protocol A, FIG. 1(b)): lack of activation

**Q.** How did the activation at 30 µM (full-length human PDE4D5; Protocol A) turn out when `COC(=O)c1nc(-c2ccc(Cl)c(F)c2)nn1CC(=O)NCc1ccccc1` [Example 3, Methyl 1-[(benzylcarbamoyl)methyl]-3-(4-chloro-3-fluorophenyl)-1H-1,2,4-triazole-5-carboxylate] was run?
**A.** Its activation at 30 µM is 62.6%.

**Q.** What about the activation at 30 µM (full-length human PDE4B2; Protocol A) of the same compound?
**A.** The activation at 30 µM was -0.9%.

**Q.** `CCOC(=O)c1nc(-c2ccc(Cl)c(F)c2)nn1CC(=O)NCc1cccc(F)c1` [Example 4, Ethyl 3-(4-chloro-3-fluorophenyl)-1-{[(3-fluorobenzyl)carbamoyl]methyl}-1H-1,2,4-triazole-5-carboxylate] was tested. Which activation at 30 µM (full-length human PDE4B1; Protocol B) did it give?
**A.** The activation at 30 µM was 80.5%.

**Q.** `CCOC(=O)c1nc(-c2ccc(Cl)c(F)c2)nn1CC(=O)NCc1cccc(OC)c1` [Example 5, Ethyl 3-(4-chloro-3-fluorophenyl)-1-{[(3-methoxybenzyl)carbamoyl]methyl}-1H-1,2,4-triazole-5-carboxylate] was tested. Which activation at 30 µM (full-length human PDE4B1; Protocol B) did it give?
**A.** Its activation at 30 µM is 44%.

**Q.** For `NC(=O)c1nc(-c2ccc(Cl)c(F)c2)nn1CC(=O)NCc1cccc(F)c1` [Example 8, 3-(4-chloro-3-fluorophenyl)-1-{[(3-fluorobenzyl)carbamoyl]methyl}-1H-1,2,4-triazole-5-carboxamide], which activation at 30 µM (full-length human PDE4B1; Protocol A) is on record?
**A.** Its activation at 30 µM is 50.9%.

**Q.** `COc1cccc(CNC(=O)Cn2nc(-c3ccc(Cl)c(F)c3)nc2C(N)=O)c1` [Example 9, 3-(4-chloro-3-fluorophenyl)-1-{[(3-methoxybenzyl)carbamoyl]methyl}-1H-1,2,4-triazole-5-carboxamide] was tested. Which activation at 30 µM (full-length human PDE4B1; Protocol A) did it give?
**A.** The activation at 30 µM was 58.5%.

**Q.** Which results are given for `CNC(=O)c1nc(-c2ccc(Cl)c(F)c2)nn1CC(=O)NCc1cccc(F)c1` [Example 10, 3-(4-chloro-3-fluorophenyl)-1-{[(3-fluorobenzyl)carbamoyl]methyl}-N-methyl-1H-1,2,4-triazole-5-carboxamide]?
**A.** activation at 30 µM (full-length human PDE4B1; Protocol B): 85.1%; activation at 30 µM (full-length human PDE4B2; Protocol B): 23.3%

**Q.** With `CN(C)C(=O)c1nc(-c2ccc(Cl)c(F)c2)nn1CC(=O)NCc1cccc(F)c1` [Example 11, 3-(4-chloro-3-fluorophenyl)-1-{[(3-fluorobenzyl)carbamoyl]methyl}-N,N-dimethyl-1H-1,2,4-triazole-5-carboxamide] as the compound, how does the activation at 30 µM (full-length human PDE4B1; Protocol A) read?
**A.** Its activation at 30 µM is 84.1%.

**Q.** How did the activation at 30 µM (full-length human PDE4B1; Protocol B) turn out when `CNC(=O)c1nc(-c2ccc(Cl)c(F)c2)nn1CC(=O)NCc1cccc(OC)c1` [Example 12, 3-(4-chloro-3-fluorophenyl)-1-{[(3-methoxybenzyl)carbamoyl]methyl}-N-methyl-1H-1,2,4-triazole-5-carboxamide] was run?
**A.** Its activation at 30 µM is 89.2%.

**Q.** How did the activation at 30 µM (full-length human PDE4B1; Protocol B) turn out when `COc1cccc(CNC(=O)Cn2nc(-c3ccc(Cl)c(F)c3)nc2C#N)c1` [Example 16, 2-[3-(4-chloro-3-fluorophenyl)-5-cyano-1H-1,2,4-triazol-1-yl]-N-(3-methoxybenzyl)acetamide] was run?
**A.** Its activation at 30 µM is 52.2%.

**Q.** For `COc1cccc(CNC(=O)Cn2nc(-c3ccc(Cl)c(F)c3)nc2C(=O)NC(C)C)c1` [Example 17, 3-(4-chloro-3-fluorophenyl)-1-{[(3-methoxybenzyl)carbamoyl]methyl}-N-isopropyl-1H-1,2,4-triazole-5-carboxamide], which activation at 30 µM (full-length human PDE4D5; Protocol B) is on record?
**A.** The activation at 30 µM was 81.1%.

**Q.** With `COc1cccc(CNC(=O)Cn2nc(-c3ccc(Cl)c(F)c3)nc2C(=O)N(C)C)c1` [Example 18, 3-(4-chloro-3-fluorophenyl)-1-{[(3-methoxybenzyl)carbamoyl]methyl}-N,N-dimethyl-1H-1,2,4-triazole-5-carboxamide] as the compound, how does the activation at 30 µM (full-length human PDE4D5; Protocol B) read?
**A.** The activation at 30 µM was 83.9%.

**Q.** With `CCNC(=O)c1nc(-c2ccc(Cl)c(F)c2)nn1CC(=O)NCc1cccc(F)c1` [Example 19, 3-(4-chloro-3-fluorophenyl)-1-{[(3-fluorobenzyl)carbamoyl]methyl}-N-ethyl-1H-1,2,4-triazole-5-carboxamide] as the compound, how does the activation at 30 µM (full-length human PDE4D5; Protocol B) read?
**A.** The activation at 30 µM was 84.1%.

**Q.** Which results are given for `COCCNC(=O)c1nc(-c2ccc(Cl)c(F)c2)nn1CC(=O)NCc1cccc(F)c1` [Example 20, 3-(4-chloro-3-fluorophenyl)-1-{[(3-fluorobenzyl)carbamoyl]methyl}-N-(2-methoxyethyl)-1H-1,2,4-triazole-5-carboxamide]?
**A.** activation at 30 µM (full-length human PDE4D5; Protocol B): 63.3%; activation at 30 µM (full-length human PDE4B2; Protocol B): -22.4%

**Q.** `COCCNC(=O)c1nc(-c2ccc(Cl)c(F)c2)nn1CC(=O)NCc1cccc(OC)c1` [Example 21, 3-(4-chloro-3-fluorophenyl)-1-{[(3-methoxybenzyl)carbamoyl]methyl}-N-(2-methoxyethyl)-1H-1,2,4-triazole-5-carboxamide] was tested. Which activation at 30 µM (full-length human PDE4D5; Protocol B) did it give?
**A.** The activation at 30 µM was 105%.

**Q.** Which activation at 30 µM (full-length human PDE4D5; Protocol B) does the source give for `O=C(Cn1nc(-c2ccc(Cl)c(F)c2)nc1C(=O)NC1CCCCC1)NCc1cccc(F)c1` [Example 22, 3-(4-chloro-3-fluorophenyl)-1-{[(3-fluorobenzyl)carbamoyl]methyl}-N-cyclohexyl-1H-1,2,4-triazole-5-carboxamide] here?
**A.** The activation at 30 µM was 53.1%.

**Q.** For `CCOC(=O)c1cc(-c2ccc(Cl)cc2)nn1CC(=O)NCc1cccc(F)c1` [Example 23, Ethyl 3-(4-chlorophenyl)-1-{[(3-fluorobenzyl)carbamoyl]methyl}-1H-pyrazole-5-carboxylate], which activation at 30 µM (full-length human PDE4D5; Protocol B) is on record?
**A.** Its activation at 30 µM is 93.7%.

**Q.** For `COC(=O)c1cc(-c2cccc(OC)c2)nn1CC(=O)NCc1cccc(F)c1` [Example 24, Methyl 1-{[(3-fluorobenzyl)carbamoyl]methyl}-3-(3-methoxyphenyl)-1H-pyrazole-5-carboxylate], which activation at 30 µM (full-length human PDE4D5; Protocol B) is on record?
**A.** The activation at 30 µM was 87.4%.

**Q.** For `CNC(=O)c1cc(-c2ccc(Cl)c(F)c2)nn1CC(=O)NCc1cccc(OC)c1` [Example 25, 3-(4-chloro-3-fluorophenyl)-1-{[(3-methoxybenzyl)carbamoyl]methyl}-N-methyl-1H-pyrazole-5-carboxamide], which activation at 30 µM (full-length human PDE4D5; Protocol B) is on record?
**A.** The activation at 30 µM was 39.5%.

**Q.** And the activation at 30 µM (full-length human PDE4B2; Protocol B)?
**A.** Its activation at 30 µM is 21%.

**Q.** For `CNC(=O)c1cc(-c2ccc(Cl)c(F)c2)nn1CC(=O)NCc1cccc(F)c1` [Example 26, 3-(4-chloro-3-fluorophenyl)-1-{[(3-fluorobenzyl)carbamoyl]methyl}-N-methyl-1H-pyrazole-5-carboxamide], which activation at 30 µM (full-length human PDE4D5; Protocol B) is on record?
**A.** The activation at 30 µM was 38.2%.

**Q.** And the activation at 30 µM (full-length human PDE4B2; Protocol B)?
**A.** The activation at 30 µM was 17.1%.

**Q.** What does the source list for `CCOC(=O)c1cc(-c2ccc(Cl)cc2)nn1CC(=O)NCc1cccc(OC)c1` [Example 27, Ethyl 3-(4-chlorophenyl)-1-{[(3-methoxybenzyl)carbamoyl]methyl}-1H-pyrazole-5-carboxylate]?
**A.** activation at 30 µM (full-length human PDE4D5; Protocol B): 75.1%; activation at 30 µM (full-length human PDE4B2; Protocol B): 7.6%

**Q.** Which activation at 30 µM (full-length human PDE4D5; Protocol B) does the source give for `CCc1nc(-c2ccc(Cl)c(F)c2)nn1CC(=O)NCc1cnc[nH]1` [Example 29, N-[(1H-imidazol-5-yl)methyl]-2-[3-(4-chloro-3-fluorophenyl)-5-ethyl-1H-1,2,4-triazol-1-yl]acetamide] here?
**A.** The activation at 30 µM was 31.9%.

**Q.** With `CCc1nc(-c2ccc(Cl)c(F)c2)cn1CC(=O)NCc1cc(Cl)cc(Cl)c1` [Example 30, 2-[4-(4-chloro-3-fluorophenyl)-2-ethyl-1H-imidazol-1-yl]-N-(3,5-dichlorobenzyl) acetamide] as the compound, how does the activation at 30 µM (full-length human PDE4D5; Protocol B) read?
**A.** Its activation at 30 µM is 87.6%.
